Legend:
p-AKT 473 = experiment: Survival pathway protein expression by western blotting in SHSY5Y; assay type: cell-based, human
Description: Here, A1 was tested to find its role in eliciting survival pathway proteins in differentiated human neuroblastoma cells in concentration and time dependent manner.
To investigate the effect of A1 on the survival proteins, […] of survival proteins, including p-Erk 44/42, p-AKT 473, Anti BDNF, and p TrkB 816 and p TrKB 515 by western blotting.

p-Erk 44/42 = experiment: as above; assay type: cell-based, human; details: for Relative Protein Expression p ERK 44/42: A1 + Cort.
depression mice model = experiment: In vivo corticosterone induced depression model: Forced Swim Test; set-up: species or system mouse (male C57)
Description: (§1) In vivo efficacy (ameliorates behavioral despair) of A1 in corticosterone induced model of stress (J. Neurochem., 2018 146, 722 734). […] A1 (20 mg/kg, oral) dissolved in normal saline was given for 3 consecutive weeks following corticosteroid stress. The sucrose preference test was employed, tail suspension test, and forced swim test to evaluate behavioral distress. We noticed that A1 can resurrect mice in stressful situations. […]
The forced swim test was employed to evaluate behavioral melancholy in depressed subjects. Each animal was individually conditioned in a glass cylinder 20 cm long, 10 cm deep and 14 cm radius of curvature. After being submerged in water for 5 mins, the mice's cumulative stationary episode, struggle in water, and eventual floating condition were evaluated. The duration for which the animals were motionless while attempting to hold both of their front limbs still was calculated by interpreting the visualizations portraying behavioral despair (Front Behav Neurosci., 2018, 12, 42).

[1] = tested on: differentiated human neuroblastoma cell line SHSY5Y; experiment: In vitro neuroprotection against corticosterone, differentiated SHSY5Y, 48 hrs; assay type: cell-based
Description: (§2) Human neuroblastoma cells (SHSY5Y) and mouse neuroblastoma cells (N2A) were procured from American Type Culture Collection (ATCC). SHSY5Y cell cultures were maintained in DMEM F12 (Invitrogen) whereas N2A were cultured in DMEM (Invitrogen) with 10% Fetal Bovine Serum (Gibco) medium, subjected to differentiation to acquire neuronal morphology (employing differentiation media DMEM-F12, 3-5% FBS, (For differentiation, low concentration of FBS was used) and 50 μM retinoic acid). Differentiated cells were later seeded into 96 well plates, at a density of 1×10^4 before being incubated for 48 hrs with the synthesized library. The exhausted culture media was substituted with new culture media containing 0.5 mg/ml MTT dye. Eventually, the OD at 490 nm excitation was measured using a 96-well plate reader. The proportion of viable cells was determined as percentage of absorbance of untreated cultures relative to control.
(§3) In the next attempt, the neuroprotective properties of the generated library (20 μM, 48 hrs) were assessed employing differentiated human neuroblastoma cell line SHSY5Y and mouse neuroblastoma cell line N2A (Biomol Ther., 2022, 30(6), 570-575). The cells were assaulted with the neurotoxic corticosterone (Cort, 400 μM) for 24 hrs after the overnight preincubation of cells with test molecules as a selection criterion. […]

[2] = Cell viability assay in macrophage RAW264.7 cells (MTT); assay type: cell-based; details: mouse, read-out: % cell viability ± SD
Description: RAW264.7 cells were seeded in 96-well cell culture plates at a density of 1×10^4 cells per well and incubated overnight at 37° C. with 5% CO2. Next day, the cells were treated with CBD or its derivatives at 5 μM and/or 10 μM concentration for 24 hrs. The MTT dye (2.5 mg/ml, 20 μL) was added to each well 4 hrs before termination (Molecules. 2022, 27, 8068). After 4 hrs of incubation with MTT, the supernatant was discarded, and the formazan crystals were dissolved by adding 100 μL DMSO. The absorbance was recorded at 540 nm on microplate reader (Tecan Infinite Pro).

p TrkB 816 = experiment: Survival pathway protein expression by western blotting in SHSY5Y; assay type: cell-based, human; details: for Relative Protein Expression p TrkB 816: A1 + Cort.
[3] = tested on: differentiated SHSY5Y cell cultures; experiment: Neuroprotective potential in differentiated SHSY5Y after 96 hrs, concentration series with and without corticosterone; assay type: cell-based, human
Description: Furthermore, A1 intervention in presence of corticosterone evidenced neuroprotective effect against corticosterone induced impairment and cell death.

Anti BDNF = experiment: Survival pathway protein expression by western blotting in SHSY5Y; assay type: cell-based, human; details: for Relative Protein Expression Anti BDNF: A1 + Cort.
[4] = In vivo corticosterone induced depression model: effect on body weight; set-up: species or system mouse (male C57); details: 21 days; for Weight (g) ± SD: A1 20 mg/kg oral, fluoxetine 18 mg/kg
Description: as §1

p TrkB 515 = experiment: Survival pathway protein expression by western blotting in SHSY5Y; assay type: cell-based, human
[5] = tested on: mouse neuroblastoma cell line N2A; experiment: In vitro neuroprotection against corticosterone, differentiated N2A, 48 hrs; assay type: cell-based; details: test compound 20 μM + Cort. 400 μM, read-out: % Cell viability ± SD, N2A
Description: as §2, §3

[6] = A1 for multiple time spans, corticosterone

## C=C(C)[C@@H]1CCC(C)=C[C@H]1c1c(O)cc(CCCCC)c(CN2CCOCC2)c1O [A1, 2′-(morpholin-1-ylmethyl)-cannabidiol]
p-AKT 473; A1 5 μM, 6 hrs
  Relative Protein Expression PAKT 473: 0.67
p-AKT 473; A1 10 μM, 6 hrs
  Relative Protein Expression PAKT 473: 1.60
p-AKT 473; A1 + Cort., 0 hr
  Relative Protein Expression PAKT 473: 1.00
p-AKT 473; A1 + Cort., 0.5 hr
  Relative Protein Expression PAKT 473: 11.68
p-AKT 473; A1 + Cort., 1 hr
  Relative Protein Expression PAKT 473: 14.78
p-AKT 473; A1 + Cort., 2 hr
  Relative Protein Expression PAKT 473: 17.15
p-AKT 473; A1 + Cort., 4 hr
  Relative Protein Expression PAKT 473: 26.33
p-AKT 473; A1 + Cort., 6 hr
  Relative Protein Expression PAKT 473: 31.80
p-AKT 473; A1/Cort., A1 5 μM, 6 hrs
  Relative Protein Expression PAKT 473: 0.60
p-AKT 473; A1/Cort., A1 10 μM, 6 hrs
  Relative Protein Expression PAKT 473: 1.35
p-AKT 473; [6]
  expression of p-AKT 473 (in words): remarkably increased
p-Erk 44/42; 0 hr
  Relative Protein Expression p ERK 44/42: 1.00
p-Erk 44/42; 0.5 hr
  Relative Protein Expression p ERK 44/42: 1.32
p-Erk 44/42; 1 hr
  Relative Protein Expression p ERK 44/42: 3.29
p-Erk 44/42; 2 hr
  Relative Protein Expression p ERK 44/42: 8.33
p-Erk 44/42; 4 hr
  Relative Protein Expression p ERK 44/42: 9.69
p-Erk 44/42; 6 hr
  Relative Protein Expression p ERK 44/42: 10.62
p-Erk 44/42; [6]
  expression of p-Erk 44/42 (in words): remarkably increased
Depression mice model; with Cort.
  % Immobility (sec) ± SD (dead time): 17.67 ± 5.12 s
  % Latency to immobility (sec) ± SD: 34.06 ± 14.03 s
Depression mice model; without Cort.
  % Immobility (sec) ± SD (dead time): 24.22 ± 5.30 s
  % Latency to immobility (sec) ± SD: 44.59 ± 19.55 s
[1]; 20 μM + Cort. 400 μM, compared with corticosterone treated group, SHSY5Y and N2A
  cell viability (in words): the highest number of viable cells were observed in A1 treated line
[1]; Homo sapiens, SH-SY5Y, test compound 20 μM + Cort. 400 μM, 48 hrs, read-out: % Cell viability ± SD, SHSY5Y
  viability at 20 µM: 97.9 ± 1.31%
[2]; RAW264.7, 5 μM
  viability at 24 h, 5 µM: 93.1 ± 1.1%
[2]; RAW264.7, 10 μM
  viability at 24 h, 10 µM: 83.5 ± 0.6%
P TrkB 816; 0 hr
  Relative Protein Expression p TrkB 816: 1.012
P TrkB 816; 0.5 hr
  Relative Protein Expression p TrkB 816: 1.309
P TrkB 816; 1 hr
  Relative Protein Expression p TrkB 816: 10.54
P TrkB 816; 2 hr
  Relative Protein Expression p TrkB 816: 16.76
P TrkB 816; 4 hr
  Relative Protein Expression p TrkB 816: 23.54
P TrkB 816; [6]
  expression of p TrkB 816 (in words): remarkably increased
[3]; Homo sapiens, SH-SY5Y, 96 h, A1 1.25 μM + Cort 400 μM, 96 hrs
  viability at 1.25 µM: 83.8%
[3]; Homo sapiens, SH-SY5Y, 96 h, A1 2.5 μM + Cort 400 μM, 96 hrs
  viability at 2.5 µM: 93.6%
[3]; Homo sapiens, SH-SY5Y, 96 h, A1 10 μM + Cort 400 μM, 96 hrs
  viability at 10 µM: 113%
[3]; Homo sapiens, SH-SY5Y, 96 h, A1 20 μM + Cort 400 μM, 96 hrs
  viability at 20 µM: 108%
[3]; Homo sapiens, SH-SY5Y, 96 h, A1 40 μM + Cort 400 μM, 96 hrs
  viability at 40 µM: 102%
[3]; in presence of corticosterone
  neuroprotection against corticosterone (in words): substantial level of neuroprotection by significantly lowering the corticosterone cytotoxic activity
Anti BDNF; 0 hr
  Relative Protein Expression Anti BDNF: 1.029
Anti BDNF; 0.5 hr
  Relative Protein Expression Anti BDNF: 14.02
Anti BDNF; 1 hr
  Relative Protein Expression Anti BDNF: 28.11
Anti BDNF; 2 hr
  Relative Protein Expression Anti BDNF: 51.76
Anti BDNF; 4 hr
  Relative Protein Expression Anti BDNF: 41.62
Anti BDNF; [6]
  expression of Anti BDNF (in words): remarkably increased
[4]; 20 mg/kg oral
  toxicity / weight fluctuations (in words): no discernible toxicity
[4]; with Cort. 35 μg/ml
  Weight (g) ± SD: 36.75 ± 3.88 g
[4]; without Cort.
  Weight (g) ± SD: 42.88 ± 2.69 g
P TrkB 515; A1 5 μM, 6 hrs
  Relative Protein Expression p TrkB 515: 0.23
P TrkB 515; A1 + Cort., 0 hr
  Relative Protein Expression p TrkB 515: 1.019
P TrkB 515; A1 + Cort., 0.5 hr
  Relative Protein Expression p TrkB 515: 2.277
P TrkB 515; A1 + Cort., 1 hr
  Relative Protein Expression p TrkB 515: 6.57
P TrkB 515; A1 + Cort., 2 hr
  Relative Protein Expression p TrkB 515: 8.707
P TrkB 515; A1 + Cort., 4 hr
  Relative Protein Expression p TrkB 515: 8.145
P TrkB 515; [6]
  expression of p TrkB 515 (in words): remarkably increased
[5]
  viability at 20 µM: 97.6 ± 1.97%

Reference: US20260315499A1, “2'- {HETEROCYCLYL (ARYL/ALKYL) METHYL} - CANNABIDIOL COMPOUNDS AND PROCESS FOR PREPARATION THEREOF” (COUNCIL OF SCIENTIFIC & INDUSTRIAL RESEARCH, priority 2023, published 2026)
